From patent US7595401B2, “Therapeutic compounds and their use in cancer” (Myriad Pharmaceuticals, Inc., priority 2006, dated 2009) come the findings set out here.

For the first assay, the system named is purified human Hsp90. The assay is described as follows: Binding Assay: fluorescence polarization with BODIPY-labeled geldanamycin. Conditions: 5 μM compound, BODIPY-GM 10 nM, Hsp90 30 nM. As for the experimental part: Compound binding to purified Hsp90 was monitored using BODIPY-labeled geldanamycin (BODIPY-GM) in a fluorescence polarization assay adapted from Kim et al. (Journal of Biomolecular Screening 2004, 9(5):375-381). Compound dilutions (in 100% DMSO) were added to black-bottom 96-well plates (Greiner; 2% DMSO final), and equal volumes of BODIPY-GM (10 nM final) and purified human Hsp90 (Stressgen, SPP-770; 30 nM final) in assay buffer (20 mM HEPES-KOH pH 7.3, 50 mM KCl, 5 mM MgCl2, 20 mM Na2MoO4, 0.01% NP-40, 0.1 mg/mL bovine gamma globulin [Invitrogen, P2045], 2 mM DTT) were added sequentially to yield a final volume of 50 microliters. Plates were incubated overnight at room temperature. Parallel and perpendicular fluorescence measurements were read (LJL BioSystems Analyst AD plate reader) with excitation/emission wavelengths of 485/530 nm. Background fluorescence (buffer only) was subtracted, and fluorescence polarization (FP) values, expressed in mP units, were calculated from parallel and perpendicular fluorescence readings as follows: FP=(parallel−perpendicular)/(parallel+perpendicular)*1000
Percent inhibition was calculated by normalizing the FP values to those obtained in parallel reactions containing DMSO and subtracting these normalized values from 100%. Intrinsic compound fluorescence was independently monitored, and FP data points confounded by compound fluorescence were excluded from the analysis.
A general note: Polarisation of emitted light reports the rotation of a fluorescent probe.
With `COc1ccc(OC)c(Sc2nc3c(N)ncn(CCc4ccc(Cl)cc4Cl)c-3n2)c1` [Example 28, 3-[2-(2,4-dichloro-phenyl)-ethyl]-8-(2,5-dimethoxy-phenyl-sulfanyl)-3H-purin-6-ylamine], the % Inhibition (commonly the relative decrease from the control value, in per cent) at 5 μM Compound Concentration turned out to be 0%.
Turning to `COc1ccc(OC)c(Sc2nc3c(N)ncn(CCc4ccccc4F)c-3n2)c1` [Example 30, 8-(2,5-dimethoxy-phenylsulfanyl)-3-[2-(2-fluoro-phenyl)-ethyl]-3H-purin-6-ylamine], the “% Inhibition at 5 μM Compound Concentration” value is recorded as 16%.

The assay is the same for the next values; noted with them: BODIPY-GM 10 nM, Hsp90 30 nM.
`COc1ccc(OC)c(Sc2nc3c(N)ncn(CCc4ccccc4Cl)c-3n2)c1` [Example 26, 3-[2-(2-chloro-phenyl)-ethyl]-8-(2,5-dimethoxy-phenylsulfanyl)-3H-purin-6-ylamine]: the IC50 (in general, the concentration at which inhibition is half-maximal) is greater than 10000 nM.
As to `COc1ccc(OC)c(Sc2nc3c(N)ncnc3n2CCc2ccc(Cl)cc2Cl)c1` [Example 27, 9-[2-(2,4-Dichloro-phenyl)-ethyl]-8-(2,5-dimethoxy-phenylsulfanyl)-9H-purin-6-ylamine], the IC50 was greater than 10000 nM.
Consider `COc1ccc(OC)c(Sc2nc3c(N)ncnc3n2CCc2ccccc2F)c1` [Example 29, 8-(2,5-Dimethoxy-phenylsulfanyl)-9-[2-(2-fluoro-phenyl)-ethyl]-9H-purin-6-ylamine], for which the half-maximal inhibitory concentration (IC50) was 150 nM.
For `COc1ccc(OC)c(Sc2nc3c(N)ncn(CCc4ccccc4F)c-3n2)c1` [Example 30, 8-(2,5-dimethoxy-phenylsulfanyl)-3-[2-(2-fluoro-phenyl)-ethyl]-3H-purin-6-ylamine], the concentration for half-maximal inhibition (IC50) is greater than 10000 nM.
For the compound `COc1cc(Sc2nc3c(N)ncnc3n2CCc2ccc(Cl)cc2)cc(OC)c1OC` [Example 31, 9-[2-(4-Chloro-phenyl)-ethyl]-8-(3,4,5-trimethoxy-phenylsulfanyl)-9H-purin-6-ylamine], the IC50 is greater than 10000 nM.
`COc1cc(Sc2nc3c(N)ncn(CCc4ccc(Cl)cc4)c-3n2)cc(OC)c1OC` [Example 32, 3-[2-(4-chloro-phenyl)-ethyl]-8-(3,4,5-trimethoxy-phenylsulfanyl)-3H-purin-6-ylamine] displayed an IC50 greater than 10000 nM.
As to `Nc1ncnc2c1nc(Sc1cc3c(cc1I)OCO3)n2CCc1ccccc1` [Example 33, 8-(-6-Iodo-benzo[1,3]dioxol-5-ylsulfanyl)-9-phenethyl-9H-purin-6-ylamine], the IC50 came out at 17 nM.
On the same count and under the same terms, to `Nc1ncn(CCc2ccccc2)c2nc(Sc3cc4c(cc3I)OCO4)nc1-2` [Example 34, 8-(6-iodo-benzo[1,3]dioxol-5-ylsulfanyl)-3-phenethyl-3H-purin-6-ylamine] belongs greater than 10000 nM.
For the compound `COc1cccc(CCn2c(Sc3cc(OC)ccc3OC)nc3c(N)ncnc32)c1` [Example 35, 8-(2,5-Dimethoxy-phenylsulfanyl)-9-[2-(3-methoxy-phenyl)-ethyl]-9H-purin-6-ylamine], the IC50 amounted to 800 nM.
`COc1cccc(CCn2cnc(N)c3nc(Sc4cc(OC)ccc4OC)nc2-3)c1` [Example 36, 8-(2,5-dimethoxy-phenylsulfanyl)-3-[2-(3-methoxy-phenyl)-ethyl]-3H-purin-6-ylamine] came in with an IC50 greater than 5000 nM.
`COc1ccc(OC)c(Sc2nc3c(N)ncnc3n2CCc2cccc(F)c2)c1` [Example 37, 8-(2,5-Dimethoxy-phenylsulfanyl)-9-[2-(3-fluoro-phenyl)-ethyl]-9H-purin-6-ylamine] showed a concentration for half-maximal inhibition (IC50) of 800 nM.
For `COc1ccc(OC)c(Sc2nc3c(N)ncn(CCc4cccc(F)c4)c-3n2)c1` [Example 38, 8-(2,5-dimethoxy-phenylsulfanyl)-3-[2-(3-fluoro-phenyl)-ethyl]-3H-purin-6-ylamine], the concentration for half-maximal inhibition (IC50) was greater than 10000 nM.
With `Nc1ncnc2c1nc(Sc1cc3c(cc1Br)OCO3)n2CCc1ccc(Cl)cc1F` [Example 39, 8-(6-Bromo-benzo[1,3]dioxol-5-ylsulfanyl)-9-[2-(4-chloro-2-fluorophenyl)-ethyl]-9H-purin-6-ylamine], the half-inhibitory concentration (IC50) came out at 230 nM.
In turn, `Nc1ncn(CCc2ccc(Cl)cc2F)c2nc(Sc3cc4c(cc3Br)OCO4)nc1-2` [Example 40, 8-(6-bromo-benzo[1,3]dioxol-5-ylsulfanyl)-3-[2-(4-chloro-2-fluoro-phenyl)-ethyl]-3H-purin-6-ylamine] registered an IC50 greater than 10000 nM.
